Experimental data taken from ChEMBL document CHEMBL4043289, “Fragment-Based Drug Discovery of Inhibitors of Phosphopantetheine Adenylyltransferase from Gram-Negative Bacteria” (J Med Chem, 2018).
Converted amounts (≈) assume the structure as drawn. The source made the active and inactive calls. No cut-off for these calls is given here.

Legend:
[1] = Inhibition of Escherichia coli C-terminal His-tagged PPAT expressed in Escherichia coli using 10 times 4'-phosphopantetheine as substrate preincubated for 5 mins followed by substrate and pyrophosphatase addition measured after 30 mins by malachite green reagent-based colorimetric method
Escherichia coli [2] = experiment: Ratio of IC50 for Escherichia coli C-terminal His-tagged PPAT expressed in Escherichia coli using 10 times 4'-phosphopantetheine as substrate to IC50 for Escherichia coli C-terminal His-tagged PPAT expressed in Escherichia coli using 4'-phosphopantetheine as substrate
[3] = Inhibition of Escherichia coli C-terminal His-tagged PPAT expressed in Escherichia coli using 4'-phosphopantetheine as substrate preincubated for 5 mins followed by substrate and pyrophosphatase addition measured after 30 mins by malachite green reagent-based colorimetric method
[4] = Inhibition of Pseudomonas aeruginosa C-terminal His-tagged PPAT expressed in Escherichia coli using 4'-phosphopantetheine as substrate preincubated for 5 mins followed by substrate and pyrophosphatase addition measured after 30 mins by malachite green reagent-based colorimetric method
Escherichia coli [5] = experiment: Inhibition of Escherichia coli C-terminal His-tagged PPAT V135I mutant using 4'-phosphopantetheine as substrate preincubated for 20 mins followed by substrate and pyrophosphatase addition by malachite green reagent-based assay
Escherichia coli [6] = experiment: Inhibition of Escherichia coli C-terminal His-tagged PPAT H138L mutant using 4'-phosphopantetheine as substrate preincubated for 20 mins followed by substrate and pyrophosphatase addition by malachite green reagent-based assay
Escherichia coli [7] = experiment: Selectivity ratio of IC50 for Escherichia coli C-terminal His-tagged PPAT M74L mutant to IC50 for Escherichia coli C-terminal His-tagged PPAT
Escherichia coli [8] = experiment: Binding affinity to Escherichia coli C-terminal His-tagged PPAT expressed in Escherichia coli assessed as change in melting temperature by SYPRO orange dye-based DSF method
Escherichia coli [9] = experiment: Antibacterial activity against tolC deficient Escherichia coli BW25113 after 20 hrs by broth microdilution method; type: functional; conditions: for MIC: BW25113, 20 h
Escherichia coli [10] = experiment: Inhibition of Escherichia coli C-terminal His-tagged PPAT expressed in Escherichia coli up to 500 uM using 4'-phosphopantetheine as substrate preincubated for 5 mins followed by substrate and pyrophosphatase addition measured after 30 mins by malachite green reagent-based colorimetric method
Escherichia coli [11] = experiment: Antibacterial activity against Escherichia coli ATCC 25922 after 20 hrs by broth microdilution method; type: functional
[12] = Lipophilicity, log D of the compound at pH 7.4; type: physicochemical; conditions: buffer
[13] = Inhibition of Staphylococcus aureus C-terminal His-tagged PPAT expressed in Escherichia coli using 4'-phosphopantetheine as substrate preincubated for 5 mins followed by substrate and pyrophosphatase addition measured after 30 mins by malachite green reagent-based colorimetric method
[14] = molecular target: T1, Bifunctional coenzyme A synthase (Homo sapiens) (UniProt Q13057); experiment: Inhibition of human PPAT up to 500 uM
T1 sequence (whole entry): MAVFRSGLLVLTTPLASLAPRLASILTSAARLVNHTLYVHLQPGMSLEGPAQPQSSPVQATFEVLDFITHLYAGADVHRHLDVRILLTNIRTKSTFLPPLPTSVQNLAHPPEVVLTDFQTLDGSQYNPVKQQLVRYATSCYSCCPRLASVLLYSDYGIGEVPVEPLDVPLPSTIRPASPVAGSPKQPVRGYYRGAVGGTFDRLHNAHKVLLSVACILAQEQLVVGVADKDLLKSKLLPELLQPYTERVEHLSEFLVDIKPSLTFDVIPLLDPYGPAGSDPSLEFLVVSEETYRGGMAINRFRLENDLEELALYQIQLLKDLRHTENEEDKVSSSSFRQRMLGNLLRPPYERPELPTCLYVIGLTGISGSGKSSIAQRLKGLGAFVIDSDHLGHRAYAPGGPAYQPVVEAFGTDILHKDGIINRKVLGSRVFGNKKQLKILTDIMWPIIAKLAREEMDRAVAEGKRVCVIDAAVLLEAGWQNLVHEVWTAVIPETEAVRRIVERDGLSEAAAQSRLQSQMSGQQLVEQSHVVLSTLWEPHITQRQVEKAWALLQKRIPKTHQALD

[15] = Solubility of the compound; type: physicochemical
[16] = (§1) Binding affinity to Escherichia coli PPAT by SPR method
Escherichia coli [17] = experiment: as §1
[18] = Dissociation rate constant to Escherichia coli PPAT by SPR method
[19] = Selectivity ratio of IC50 for human PPAT to IC50 for Escherichia coli C-terminal His-tagged PPAT
[20] = molecular target: T2, Bifunctional coenzyme A synthase (Homo sapiens, UniProt Q13057); experiment: Inhibition of human PPAT
T2 sequence (Q13057 whole entry): T1 sequence (whole entry)

Row | Structure (SMILES) | IC50 [3] [µM] | IC50 [4] [µM] | other results
1 | Cc1cc(=O)n2nc(NCc3cccc(Cl)c3)nc2[nH]1 | 7.6 | – | IC50 [1]: 43 µM; Ratio IC50 (Escherichia coli [2]): 5.7
2 | Oc1cccc2[nH]c(COc3cccc(Cl)c3)nc12 | 1.7 | 14 | –
3 | CC(C)CNC(=O)[C@@H](Cc1cnc[nH]1)NC(=O)[C@H](CCC(=O)O)NC(=O)OC1c2ccccc2-c2ccccc21 | – | – | inhibition (Escherichia coli [5]): Active; inhibition (Escherichia coli [6]): Active; Ratio IC50 (Escherichia coli [7]): 25
4 | Cc1ccc2c(ncn2Cc2cccc(Cl)c2)n1 | 4.3 | – | –
5 | Cc1cc(N)n2nc(N[C@H](C)c3cccc(Cl)c3)nc2n1 | 0.41 | 0.38 | –
6 | Cc1[nH]c2nc(NCc3ccccc3F)nn2c(=O)c1C | 31 | – | ΔTm (Escherichia coli [8]): 2.5 °C
7 | CN1C(=O)CCC(c2nc3c(O)cccc3[nH]2)C1c1ccccc1 (centres undefined) | 0.32 | 25 | –
8 | Cc1cc(C)nc(NS(=O)(=O)c2ccc(N)cc2C)n1 | 74 | – | ΔTm (Escherichia coli [8]): 8.7 °C
9 | NC1=NC(c2cccc(F)c2)n2c(nc3ccccc32)N1 (centres undefined) | 69 | – | ΔTm (Escherichia coli [8]): 3.4 °C
10 | CCCCCNC(=O)CCNC(=O)[C@H](O)C(C)(C)CO | – | – | MIC (Escherichia coli [9]): 16 µg/mL (≈ 55.5 µM); inhibition (Escherichia coli [10]): inactive; MIC (Escherichia coli [11]; ATCC 25922, 20 h): 64 µg/mL (≈ 222 µM)
11 | COc1ccc2c(c1)C(C)(C)C1CC2CN(C(C)=O)C1 (centres undefined) | 37 | – | ΔTm (Escherichia coli [8]): 5.1 °C
12 | C[C@@H](Nc1ccc2[nH]cnc2n1)c1cccc(Cl)c1 | 401 | > 500 | –
13 | Cc1cc(=O)n2nc(N[C@H](CC#N)c3cccc(Cl)c3)nc2[nH]1 | 0.037 | 0.049 | logD [12]: 1.2; IC50 [13]: > 500 µM; MIC (Escherichia coli [9]): 16 µg/mL (≈ 48.7 µM); inhibition [14]: inactive; solubility [15]: > 300 µg/mL; Kd [16]: 0.009 µM; Ka (Escherichia coli [17]): 23 ×10⁵ /M/s; Activity (Escherichia coli [11]): inactive; koff [18]: 0.021 s⁻¹
14 | Oc1cccc2[nH]c(Cc3noc4ccccc34)nc12 | 1 | 2.7 | –
15 | Oc1cccc2[nH]c(CCc3cccc(Cl)c3)nc12 | 0.25 | 4.6 | MIC (Escherichia coli [9]): 32 µg/mL (≈ 117 µM)
16 | CC(=O)N1CCC[C@H]1c1nc2c(O)cccc2[nH]1 | 106 | 1.9 | –
17 | Cc1cc(=O)n2nc(N[C@@H](C)c3ccccc3)nc2[nH]1 | 120 | – | –
18 | Cc1cc(=O)n2nc(NC(CC(=O)O)c3cccc(Cl)c3)nc2[nH]1 (centres undefined) | 0.2 | 1.1 | –
19 | Cc1cc(=O)n2nc(N[C@H](C)c3cccc(Cl)c3)nc2[nH]1 | 0.25 | 0.97 | logD [12]: 1.1; IC50 [1]: 0.92 µM; Ratio IC50 (Escherichia coli [2]): 3.7; solubility [15]: 68 µg/mL (≈ 224 µM); Kd [16]: 0.17 µM; Ka (Escherichia coli [17]): 0.16 ×10⁵ /M/s; koff [18]: 0.0028 s⁻¹
20 | O=C(O)c1cccc([C@H]2CCC[C@@H]2c2nc3c(O)cccc3[nH]2)c1 (relative stereo) | 0.051 | 25 | –
21 | CN1C(=O)C[C@H](c2nc3c(O)cccc3[nH]2)[C@H]1c1ccccc1 (relative stereo) | 1 | 11 | –
22 | Oc1cccc2[nH]c(C(F)(F)F)nc12 | 230 | > 500 | ΔTm (Escherichia coli [8]): 8.1 °C
23 | C[C@@H](Nc1nc2c(O)cccc2[nH]1)c1cccc(Cl)c1 | 1.2 | 15 | Ratio IC50 [19]: 9; IC50 [20]: 11 µM
24 | OCc1nc2c(O)cccc2[nH]1 | 116 | 108 | –
25 | COC(=O)CC(Nc1nc2[nH]c(C)cc(=O)n2n1)c1cccc(Cl)c1 (centres undefined) | 2.5 | 0.49 | –
26 | Cc1ccc2c(ncn2Cc2ccccc2)n1 | 19 | – | –
27 | Cc1ccc2[nH]c(N[C@H](C)c3cccc(Cl)c3)nc2n1 | 0.19 | 0.61 | logD [12]: 3.3

Further lines, with some results ahead:

Row | IC50 [3] [µM] | IC50 [4] [µM] | Structure (SMILES) | other results
28 | 5.9 | 4.6 | Cc1nc(N)n2nc(N[C@H](C)c3cccc(Cl)c3)nc2n1 | –
29 | 199 | – | COc1ccc2[nH]cc(CCNC(=O)C(C)(C)C)c2c1 | ΔTm (Escherichia coli [8]): 3.1 °C
30 | 23 | 0.13 | Cc1nc2ccccc2n1Cc1nc2c(O)cccc2[nH]1 | –
31 | 2.4 | 4.9 | Cc1ccc2oc(N[C@H](C)c3cccc(Cl)c3)nc2n1 | –
32 | 0.41 | 2.3 | Cc1ccc2sc(N[C@H](C)c3cccc(Cl)c3)nc2n1 | –
33 | 2.4 | 11 | COCC[C@@H](Nc1nc2[nH]c(C)cc(=O)n2n1)c1cccc(Cl)c1 | –
34 | 1080 | – | NCc1ccc2ccnc(N)c2c1 | –
35 | 348 | 271 | C[C@@H](Nc1ccc2nccnc2n1)c1cccc(Cl)c1 | –
36 | 0.55 | 0.66 | Cc1cc(=O)n2nc(N[C@H](CO)c3cccc(Cl)c3)nc2[nH]1 | –
37 | 0.25 | 3.9 | Cc1cc(=O)n2nc(N[C@H](COC(N)=O)c3cccc(Cl)c3)nc2[nH]1 | –
38 | 273 | – | c1ccc(Cn2cnc3ncccc32)cc1 | ΔTm (Escherichia coli [8]): 2.3 °C
39 | 0.91 | 34 | Oc1cccc2[nH]c(C3CCCN3c3cccc(Cl)c3)nc12 (centres undefined) | –
40 | 163 | – | CC1(C)OC(=O)c2ccccc2[C@H]1n1cncc1C(F)F | ΔTm (Escherichia coli [8]): 3.8 °C
41 | 0.24 | 2 | Cc1cc(=O)n2nc(N[C@H](CCO)c3cccc(Cl)c3)nc2[nH]1 | IC50 [1]: 0.44 µM; Ratio IC50 (Escherichia coli [2]): 1.8
42 | 237 | – | O=C(NCCCCCNC(=O)c1ccco1)c1ccco1 | ΔTm (Escherichia coli [8]): 2.9 °C
43 | 0.45 | 0.83 | Cc1cc(=O)n2nc(NC(CC(N)=O)c3cccc(Cl)c3)nc2[nH]1 (centres undefined) | –
44 | 0.9 | 2.8 | CCc1cc(=O)n2nc(N[C@H](C)c3cccc(Cl)c3)nc2[nH]1 | –
45 | 0.051 | 1.6 | Oc1cccc2[nH]c([C@H]3CCC[C@@H]3c3cccc(Cl)c3)nc12 (relative stereo) | Kd [16]: 0.038 µM; Ka (Escherichia coli [17]): 1.96 ×10⁵ /M/s; koff [18]: 0.0071 s⁻¹
46 | 0.76 | 1.4 | Cc1cc(=O)n2nc(NC(C)c3cccc(Cl)c3)nc2[nH]1 (racemic) | IC50 [1]: 3.2 µM; Ratio IC50 (Escherichia coli [2]): 4.2
47 | 264 | – | Nc1ncnc2ncn(Cc3cccc(Cl)c3)c12 | ΔTm (Escherichia coli [8]): 2.7 °C
48 | 15 | 10 | CNC(=O)CC(Nc1nc2[nH]c(C)cc(=O)n2n1)c1cccc(Cl)c1 (centres undefined) | –
49 | > 2500 | – | CC(C)(C)Nc1ccc2nnc(C(F)(F)F)n2n1 | ΔTm (Escherichia coli [8]): 2.5 °C
50 | 77 | – | Cc1cc(=O)n2nc(NCc3ccccc3)nc2[nH]1 | –
51 | 30 | 114 | CC(C)(CO)[C@@H](O)C(=O)NCCc1nc2c(O)cccc2[nH]1 | Activity (Escherichia coli [9]): inactive; Activity (Escherichia coli [11]): inactive
52 | 5.6 | – | Cc1cc(=O)n2nc(NCc3cccc(Br)c3)nc2[nH]1 | –
53 | 4.7 | 2.6 | Cc1ccn2nc(N[C@H](C)c3cccc(Cl)c3)nc2n1 | –
54 | 0.056 | 0.064 | Cc1ccc2[nH]c(N[C@H](CC#N)c3cccc(Cl)c3)nc2n1 | logD [12]: 3.3; MIC (Escherichia coli [9]): 4 µg/mL (≈ 12.8 µM); Kd [16]: 0.01 µM; Ka (Escherichia coli [17]): 13 ×10⁵ /M/s; Activity (Escherichia coli [11]): inactive; koff [18]: 0.013 s⁻¹
55 | 1.1 | 1.7 | Cc1[nH]c2nc(N[C@H](C)c3cccc(Cl)c3)nn2c(=O)c1C | –
56 | 6.4 | – | Cc1cc(=O)n2nc(N[C@H](C)c3ccccc3)nc2[nH]1 | –
